Tests used:
Notch1 [1] = test: Notch inhibition assay with soluble antagonists and WT DLL4 coated plates (CHO-K1 N1-Gal4); assay type: cell-based; conditions: comparison with DAPT and BB-94, plates coated with 50 nM WT DLL4; FIG. 4B; read-out: IC50 for inhibition of Notch1 activation
Protocol: For CHO-K1 N1-Gal4 reporter cells, on day one, biotinylated WT DLL4 was pre-coated in 96-well plates at 50 nM following the same protocol described above. Next, CHO-K1 N1-Gal4 cells were detached with trypsin-EDTA, washed, and diluted at 200,000 cells/mL in α-MEM media. Ten-fold serial dilutions of non-biotinylated DLL4 ligands (N-EGF5) were prepared in DPBS starting at 600 nM. Next, soluble inhibitors were mixed in ratio 1:1 with CHO-K1 N1-Gal4 200,000 cells/mL stocks for 15 min at room temperature to pre-block Notch receptors. Two hundred microliters of inhibition reactions containing 20,000 reporter cells were added to WT DLL4-coated wells, and plates incubated for 24 hours at 37° C. and 5% CO2. When DAPT (gamma-secretase inhibitor, Sigma) and BB-94 (ADAM metalloprotease inhibitor, Sigma) were used, stock solutions were prepared at 100 μM in 8% DMSO. Appropriate DMSO controls were included to test Notch activation and cell viability. Final DMSO concentration in the experiment was kept below 1%. […] On day two, assay plates were washed with 200 μL of DPBS, CHO-K1 N1-Gal4 cells detached with trypsin-EDTA, quenched with 200 μL of α-MEM media, and Notch activation measured by flow cytometry (BD Accuri C6 Plus). […]

Notch1 [2] = test: Notch inhibition assay in co-culture format (CHO-K1 N1-Gal4 with HEK293T expressing WT DLL4); assay type: cell-based; conditions: co-culture 1:1 with HEK293T expressing WT DLL4; read-out: IC50 for inhibition of Notch1 activation by cellular DLL4
Protocol: For inhibition of CHO-K1 N1-Gal4 cells with DAPT and Delta^MAX, the experiment was set-up following the protocol described above with the exception that CHO-K1 N1-Gal4 reporters were incubated with HEK293T-expressing WT DLL4 for Notch activation. Three-fold serial dilutions of soluble Delta^MAX and DAPT were prepared in DPBS starting at 6,000 nM. For DAPT, a stock solution of 100 μM in 8% DMSO was prepared before serial dilutions in DPBS. Appropriate DMSO controls were also assayed for cytotoxicity. Final DMSO concentration in the wells was maintained below 1%. Thirty thousand signal senders and pre-blocked signal receivers (100 μL each) were incubated for 24 hours at 37° C. and 5% CO2 before analysis by flow cytometry. Maximum Notch activation (100%) was set in the absence of soluble inhibitors and normalized to wells containing CHO-K1 N1-Gal4 cells and HEK293T lacking expression of WT DLL4. Mean fluorescence intensity is represented as percentage relative to Notch activation in the absence of inhibitors±s.d. of three independent biological replicates.

SMILES | IC50 (Notch1 [1]) | IC50 (Notch1 [2])
CNC(=O)[C@H](Cc1ccccc1)NC(=O)[C@H](CC(C)C)[C@H](CSc1cccs1)C(=O)NO [BB-94, reference compound] | 1000 nM | 
C[C@H](NC(=O)Cc1cc(F)cc(F)c1)C(=O)N[C@H](C(=O)OC(C)(C)C)c1ccccc1 [DAPT, reference compound] | 40 nM | 100 nM
